Experimental data: patent US20240194290A1, “HIDDEN ANTIBIOTICS IN THE HUMAN PROTEOME” (THE TRUSTEES OF THE UNIVERSITY OF PENNSYLVANIA, priority 2021, published 2024)
Ends that are not written are not given here.

Experiments:
[1] = system: B. fragilis ATCC25285; assay: Outer membrane permeabilization (NPN uptake) assay; assay type: cell-based, Bacteroides fragilis; conditions: peptides at MIC
Description: (§1) FIG. 10. Membrane permeabilization and depolarization assays for several bacterial strains. […] FIG. 10B: Cytoplasmic membrane depolarization assays performed against P. aeruginosa PAO1 and the gut commensal B. fragilis ATCC25285.
(§2) Methods: Membrane depolarization assays. The cytoplasmic membrane depolarization activity of the peptides was determined by measurements of fluorescence of the membrane potential-sensitive dye, DiSC3(5). Briefly, A. baumannii ATCC19606, P. aeruginosa PAO1 and B. fragilis ATCC25285 were grown at 37° C. with agitation until they reached mid-log phase (OD600=0.5). […] Thereafter, the cells (100 μL) were incubated for 15 min with 20 nmol L^−1 of DiSC3(5) until a stable reduction of fluorescence was achieved, indicating the incorporation of the dye into the bacterial membrane. Membrane depolarization was then monitored by observing the change in the fluorescence emission intensity of the membrane potential-sensitive dye, DiSC3(5) (λex=622 nm, λem=670 nm), after the addition of peptides (100 μL solution at MIC values). […] The membrane permeability of the peptides was determined by using the N-phenyl-1-napthylamine (NPN) uptake assay. […] The background fluorescence was recorded at λex=350 nm and λem=420 nm. […]

[2] = system: S. epidermidis; assay: Outer membrane permeabilization (NPN uptake) assay; assay type: cell-based, Staphylococcus epidermidis; conditions: peptides at MIC
Description: as §1, §2

[3] = system: P. aeruginosa PAO1; assay: Outer membrane permeabilization (NPN uptake) assay; assay type: cell-based, Pseudomonas aeruginosa; conditions: peptides at MIC
Description: as §1, §2

[4] = system: A. baumannii ATCC19606; assay: Outer membrane permeabilization (NPN uptake) assay; assay type: cell-based, Acinetobacter baumannii; conditions: peptides at MIC, compared to untreated control and polymyxin B
Description: (§3) FIG. 3. Synergy, resistance development and mechanism of action studies of encrypted peptides. […] (FIG. 3B) Evolution of resistance by A. baumannii to encrypted peptides derived from the CUB domain (red) or polymyxin B (gray) after 30 days of serial passaging in liquid nutrient broth. Peptides and antibiotics were used at sub-inhibitory concentrations. Cells were passaged every 48 h. […] (FIG. 3D) Cytoplasmic membrane depolarization effects of the encrypted peptides against A. baumannii. (FIG. 3E) NPN assays showing the effect of encrypted peptides derived from the CUB domain and natriuretic peptide on permeabilization of the outer membrane of A. baumannii.
In order to investigate the mode of action of encrypted peptides against bacterial cells, assays were performed to study their effects on the bacterial membrane. First, the ability of encrypted peptides to disrupt and depolarize the bacterial cytoplasmic membrane was assessed […]. 3,3′-dipropylthiadicarbocyanine iodide [DiSC3(5)] was used, a potentiometric fluorophore that accumulates and aggregates in the cytoplasmic membrane, quenching its fluorescence. Upon imbalances of the cytoplasmic membrane transmembrane potential, the fluorophore migrates to the cytoplasm or the outer environment, generating fluorescence. […]
Methods: Membrane depolarization assays. The cytoplasmic membrane depolarization activity of the peptides was determined by measurements of fluorescence of the membrane potential-sensitive dye, DiSC3(5). […] Thereafter, the cells (100 μL) were incubated for 15 min with 20 nmol L^−1 of DiSC3(5) until a stable reduction of fluorescence was achieved, indicating the incorporation of the dye into the bacterial membrane. Membrane depolarization was then monitored by observing the change in the fluorescence emission intensity of the membrane potential-sensitive dye, DiSC3(5) (λex=622 nm, λem=670 nm), after the addition of peptides (100 μL solution at MIC values). […] The membrane permeability of the peptides was determined by using the N-phenyl-1-napthylamine (NPN) uptake assay. […]

[5] = system: A. baumannii; assay: Bacterial resistance development assay (serial passaging); assay type: cell-based, Acinetobacter baumannii; conditions: after 26 days of serial passaging at sub-inhibitory concentrations
Description: as §3
In any antibiotic discovery effort, it is crucial to assess how readily the molecules identified select for resistance mechanisms in bacteria, as the emergence of resistance has hampered the antibiotic field since its very inception with the discovery of penicillin in 1928^38. To determine whether bacteria become resistant to encrypted peptides, longitudinal resistance assays were performed with peptides derived from the CUB domains 1 and 3 against A. baumannii, using polymyxin B as a control (FIG. 3B).
Methods: Bacterial resistance development assays. The evolution of resistance by A. baumannii cells to encrypted peptides was monitored for 30 days of serial passaging in liquid nutrient broth. […]

Q: For “natriuretic peptide: peptide hormone responsible for inducing the excretion of sodium by the kidneys (P01160) (SLRRSSCFGGRMDRIGAQSGLGCNSFRY; ends and bridges not checked; cysteine pairing not given here; UniProt P01160 124-151, looked up)”, which “outer membrane permeabilization (NPN)” value [1] is on record?
A: The value was “permeabilized”.

Q: What about the “outer membrane permeabilization (NPN)” value [2] of the same substance?
A: The value was “permeabilized”.

Q: And the “outer membrane permeabilization (NPN)” value [3]?
A: Its value is “permeabilized”.

Q: And the “outer membrane permeabilization (NPN fluorescence)” value [4]?
A: Its value is “increased fluorescence”.

Q: Which “increase of concentrations needed to kill A. baumannii” value [5] does the source give for polymyxin B here?
A: Its value is no more than 256 fold.
